Data taken from US10682337B2, “Compositions and methods for treatment and prevention of pyrexia in horses” (Kindred Biosciences, Inc., priority 2015, dated 2020).

Columns and labels:
Format in all cases: in vivo
[1] = test system: horses with clinical signs of infectious disease; experiment: two-phase efficacy study of oral metamizole in mature horses
Protocol: A two-phase study to determine the efficacy of oral metamizole in mature horses was conducted as follows. In the first phase, 9 horses with clinical signs of infectious disease were enrolled.
In the second phase, 8 horses with clinical signs of infectious disease were enrolled.
The oral formulation of metamizole used for both phases was an aqueous formulation comprising 500 mg/ml metamizole sodium monohydrate, 10 mg/ml xanthan gum, and 100 mg/ml propylene glycol, and 15 mg/ml benzyl alcohol. The formulation was adjusted to pH 7.8 using sodium hydroxide.
For both phases, rectal temperature was monitored at pre-determined intervals. Horses were redosed based on rectal temperature and minimum dosing intervals up to five additional times, for a total of six doses. Fever was required for redose with metamizole.

[2] = test system: horses with naturally occurring respiratory infections; experiment: pilot efficacy study of orally administered metamizole in horses with fever; conditions: of 8 horses; oral gel 30 mg/kg; ≥2° F. decrease or ≤101.0° F. 6 hours following dose
Protocol: Metamizole, as an active ingredient, was formulated into a simple gel for oral administration and dosed at 30 mg/kg body weight. Eight horses with naturally occurring respiratory infections were provided. The temperatures of the horses were monitored. […] Horses were treated up to three times with an oral formulation of metamizole sodium. Rectal temperature was monitored to determine response to treatment. […] Pyrexia returned at timepoints appropriate for the drug's plasma residence time.

[3] = oral bioavailability of metamizole in horses (plasma 4-MAA); conditions: four horses; 30 mg/kg; water slurry via nasogastric intubation vs IV Vetalgina; plasma 4-MAA up to 48 hours; FIG. 1
Protocol: The commercially available Vetalgina product (Intervet) for IV administration (sodium salt) was administered in accordance with the manufacturer's instructions. Plasma was collected prior to administration and at specified intervals for up to 48 hours. Horses underwent a washout period, and then were administered the active ingredient (metamizole sodium monohydrate) in a water slurry to the horses' stomach via nasogastric intubation. Plasma was collected again prior to […] administration and at specified intervals for up to 48 hours. Horses were treated with matched doses on a milligram per kilogram basis for both test articles. Plasma was assayed for the primary metabolite of metamizole sodium, 4-methylaminoantipyrine (4-MAA).

Cc1c(N(C)CS(=O)(=O)O)c(=O)n(-c2ccccc2)n1C [metamizole sodium monohydrate]
Adverse events ([1]; 30 and 40 mg/kg oral, up to six doses): consistent with the underlying infections required for enrollment | horses defined as primary responders after Dose 1 ([1]; Phase 2, 40 mg/kg oral): 7/8 | horses defined as primary responders after Dose 1 ([1]; phase 1, 30 mg/kg oral): 7/9

Cc1c(N(C)CS(=O)(=O)O)c(=O)n(-c2ccccc2)n1C [metamizole sodium]
horses with clinically significant improvement in rectal temperature [2]: 8

Cc1c(N(C)CS(=O)(=O)O)c(=O)n(-c2ccccc2)n1C [metamizole, [(2,3-dihydro-1,5-dimethyl-3-oxo-2-phenyl-1H-pyrazol-4-yl)methylamino] methanesulfonic acid]
bioavailability, orally vs parenterally administered metamizole [3]: comparable bioavailability
